Tests used:
[1] = system: mouse spleen cells; test: Proliferation of IL-4/anti-CD40 Ab-stimulated mouse spleen cells; format: cell-based; conditions: read-out: anti-proliferative potency
Procedure: BALB/c spleen cells were cultured for 20 hours in the presence of stimulus+/−AVP 893 (100 ng/ml) and harvested and prepared as described in FIG. 17. Stimulus conditions include: LPS (10 μg/ml), IL-4 (10 ng/ml) plus anti-CD40 Ab (100 ng/ml), PMA (10 ng/ml) plus ionomycin (100 nM), or Con A (5 μg/ml). […] This experiment was carried out as described for FIG. 21, except that different AVP compounds with high (AVP 893, 5 nM), medium (AVP 26297, 50 nM), and low (AVP 25630, 500 nM) anti-proliferative potency were tested and compared. AVP 893 was tested at 1, 10, and 100 ng/ml; AVP 26297 was tested at 1, 10, 100, and 1000 ng/ml; AVP 25630 was tested at 10, 100, and 1000 ng/ml.

[2] = system: GS15; test: GS15 expression in 3T3 cells; format: cell-based; conditions: beginning around 2 to 4 hrs of exposure
Source text: Likewise, the non-resident golgi protein Rab6 appeared to be unaffected in some cell types, as illustrated in FIG. 31.

[3] = system: GS28 mRNA; test: GS28 mRNA by RT-PCR in human PBL; format: cell-based; conditions: 3 to 16 hours following addition of drug
Procedure: Human buffy coats were purchased from the San Diego Blood Bank. Buffy Coat was purified of red blood cells using Histopaque-1077 following Sigma Diagnostic protocol. Lymphocytes (20 million) were then cultured in 75 cm2 flasks in cDMEM (+/−stimulus & AVP 893) for either 4 or 24 hrs. Cells were harvested and reconstituted in a Guanidine/Phenol solution essentially as described by Maniatis. The aqueous layer was removed and washed with Guanidine solution and finally 70% EtOH. RNA purity was checked by spectrophotometer. RT-PCR (36 cycles) was performed following the RT-PCR One-Step protocol (Qiagen). Similar results were obtained when testing mRNA samples obtained from other cell sources (not shown).

[4] = system: MOLT4 cells; test: Electron microscopic analysis of golgi structure; format: cell-based; conditions: 200 ng/mL, 2 hrs and 18 hrs
Procedure: Experiments were conducted to examine the golgi structure and morphology on the ultrastructural level following treatment with AVP 893. […] This finding was repeated with Vero cells, where AVP 893 was applied for 1 hr, 4 hrs, and 18 hrs, with the later two exposures resulting in disruption of cisternal structure (data not shown). We therefore conclude that AVP 893 disturbs the structure of the golgi cistemae within a few hours of treatment.

[5] = system: HSV-2; test: HSV-2 plaque formation in Vero cells; format: cell-based
Procedure: An important potential consequence of blocking normal vesicle movement between the ER and golgi is the inhibition of viral protein maturation and intracellular propagation. Most viruses rely on the classical ER-to-golgi pathway for assimilating its proteins and, ultimately, infectivity. Brefeldin A causes the accumulation of viral proteins in the ER-golgi. The capacity of AVP 893 to inhibit viral propagation was tested in vitro by infecting Vero cells with HSV-2 and observing the effect of increasing concentrations of drug (FIG. 44). Vero cells (1 million/ml) were cultured overnight and inoculated with about 150 PFU of live type 2 Herpes Virus (HSV-2, ATCC) about 1 hour after addition of AVP 893. After 48 hours, media was removed and the cells washed with saline and stained with Biological Plaque Stain for 20 min. One ml of water was added and the liquid removed before quantifying virus by enumerating PFU.

[6] = system: HSV; test: Guinea pig topical HSV model; format: in vivo; conditions: data not shown
Procedure: Representative viruses from families likely to utilize the golgi were tested. […] (data not shown).

O=C(Nc1ccc(-c2nc3cc(NC(=O)C4CCCCC4)ccc3[nH]2)cc1)C1CCCCC1 [AVP 893]
IC50 [1]: 5 nM
GS15 staining [2]: greatly diminished
level of GS28 mRNA [3]: did not affect the level of GS28 mRNA
golgi structure by electron microscopy [4]: no golgi cisternae were found
plaque formation ([5]; HSV-2, 48 hours): suppressed plaque formation at all concentrations tested
concentration giving total block of plaque formation ([5]; about 150 PFU HSV-2, 48 hours): 300 ng/mL
viral activity in vivo [6]: may inhibit viral activity in vivo

Source: US20050256179A1, “Selective pharmacologic inhibition of protein trafficking and related methods of treating human diseases” (priority 2003, published 2005)
